From ChEMBL document CHEMBL1201862, “PubChem BioAssay data set” (2004)
Activity calls are given as the source filed them.

Columns and labels:
[1] = target: T1, Polyadenylate-binding protein 1 (Homo sapiens, UniProt P11940); assay: MLLE binding blockers, Cy5 peptide tracer – biochemical, fluorescence polarization, Cy5-PAM2 peptide, secondary, miRNA deadenylation inhibitor project, dose response (AID 602260); assay type: functional; conditions: read-out: IC50_Mean
[2] = tested on: Vero; assay: cells; assay type: functional; conditions: Chlorocebus sabaeus
[3] = HIV-1 AD8 envelope cell-cell fusion blockers – cherry-pick, dose response (AID 652062); assay type: functional, cell-based;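 note: luciferase signal from cell-cell fusion driven by HIV-1 clade B AD8 Env; potency is for inhibitors of fusion seen as a drop in luminescence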
[4] = tested on: HEK293; assay: cells; conditions: Homo sapiens
[5] = tested on: HEK293; assay: cells; conditions: Homo sapiens; remark: listed apart in the source
[6] = blockers of HIV-1 envelope-mediated cell-cell fusion – cherry-pick, dose response (AID 652057); assay type: functional, cell-based
[7] = target: T1, Polyadenylate-binding protein 1; assay: MLLE domain peptide-binding blockers, IC50 – biochemical, fluorescence polarization, FITC-PAM2 peptide, dose response (AID 602259); assay type: functional; conditions: read-out: IC50_Mean
[8] = off-target signal loss in HeLa-CEM21 co-culture – HeLa F-luc CTL cells, cherry-picked, counter-screen for HIV-1 Env fusion inhibitor project, dose response (AID 652040); assay type: functional, cell-based;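 note: potency for signal decrease marking cytotoxic or nonspecific inhibition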
[9] = viability loss in CEM21 cells – cell-based, CellTiter-Glo luminescence, cherry-picked, cytotoxicity control for viral fusion inhibitor project, dose response (AID 652042); assay type: functional;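 note: potency for signal decrease meaning cytotoxicity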
[10] = target: Induced myeloid leukemia cell differentiation protein Mcl-1 (Homo sapiens, UniProt Q07820); assay type: functional
Chain of Induced myeloid leukemia cell differentiation protein Mcl-1 (Q07820 whole entry, the tested form may be a part): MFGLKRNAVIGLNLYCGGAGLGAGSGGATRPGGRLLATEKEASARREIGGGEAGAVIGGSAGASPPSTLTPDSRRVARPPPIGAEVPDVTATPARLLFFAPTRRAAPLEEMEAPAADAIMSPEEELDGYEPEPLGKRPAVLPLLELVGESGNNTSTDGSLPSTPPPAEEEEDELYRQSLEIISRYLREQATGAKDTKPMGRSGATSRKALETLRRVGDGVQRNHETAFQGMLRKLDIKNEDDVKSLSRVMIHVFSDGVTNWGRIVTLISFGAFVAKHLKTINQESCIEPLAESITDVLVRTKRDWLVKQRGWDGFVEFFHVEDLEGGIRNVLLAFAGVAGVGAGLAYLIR

[11] = blockers of HIV-1 ZM109 envelope-driven cell-cell fusion – HeLa effector, CEM target cells, luciferase, cherry-pick, dose response (AID 652058); assay type: functional, cell-based;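 note: luciferase signal from HIV-1 Env mediated cell-cell fusion of effector and target cells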
[12] = target: T2, Beta-lactamase (Pseudomonas aeruginosa, UniProt Q79MP6); assay: inhibition of IMP-1 beta-lactamase activity – biochemical, epi-absorbance, selectivity assay for VIM-2 inhibitor project, dose response (AID 1920)
T2 sequence (Q79MP6 whole entry): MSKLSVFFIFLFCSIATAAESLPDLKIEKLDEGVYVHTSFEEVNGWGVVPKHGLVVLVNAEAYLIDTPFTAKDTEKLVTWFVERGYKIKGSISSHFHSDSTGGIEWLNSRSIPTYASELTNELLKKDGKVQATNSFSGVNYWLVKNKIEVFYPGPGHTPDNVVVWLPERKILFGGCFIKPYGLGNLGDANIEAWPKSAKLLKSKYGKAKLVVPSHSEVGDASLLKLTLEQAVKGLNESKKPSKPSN

[13] = target: Beta-lactamase (Salmonella choleraesuis (strain SC-B67), UniProt Q5J463); assay: Epi-absorbance-based counterscreen for selective VIM-2 inhibitors: dose response biochemical high throughput screening assay to identify inhibitors of TEM-1 serine-beta-lactamase.
Chain of Beta-lactamase (Salmonella choleraesuis (strain SC-B67), UniProt Q5J463) (Q5J463 whole entry): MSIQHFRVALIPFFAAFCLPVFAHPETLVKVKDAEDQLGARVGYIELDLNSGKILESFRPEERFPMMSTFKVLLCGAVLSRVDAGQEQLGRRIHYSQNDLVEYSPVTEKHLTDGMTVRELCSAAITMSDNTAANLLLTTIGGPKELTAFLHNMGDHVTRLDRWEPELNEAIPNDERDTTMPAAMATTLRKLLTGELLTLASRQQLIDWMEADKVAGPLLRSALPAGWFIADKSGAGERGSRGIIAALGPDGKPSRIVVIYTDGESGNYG

[14] = target: T2, Beta-lactamase; assay: […] counterscreen for selective VIM-2 inhibitors: dose response biochemical high throughput screening assay to identify inhibitors of IMP-1 metallo-beta-lactamase.
[15] = viability loss in MITF-independent A375 cells – cell-based, CellTiter-Glo luminescence, dry powder, set 2, counter-screen for MITF inhibitor project, dose response (AID 624489); assay type: functional; conditions: A-375;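 note: actives are compounds lowering A375 viability meaning general cytotoxicity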
[16] = tested on: INS1; assay: INS-1E survival protection against cytokine death – cell-based, luminescence, retest, dose response (AID 449756); assay type: functional; conditions: Rattus norvegicus;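 note: cell death triggered by IL-1 beta plus TNF-alpha plus IFN-gamma mixture; protective hits raise ATP signal compared with cytokine alone wells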
[17] = target: T3, Microphthalmia-associated transcription factor (Homo sapiens, UniProt O75030); assay: reducers of TRPM1 reporter luminescence, concentration series – cell-based, SK-MEL-5, cherry-picked, set 3, MITF inhibitor project, dose response (AID 493073); assay type: functional;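 note: SK-MEL-5 melanoma cells with luciferase driven by the MITF target TRPM1 promoter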
T3 sequence (O75030 whole entry): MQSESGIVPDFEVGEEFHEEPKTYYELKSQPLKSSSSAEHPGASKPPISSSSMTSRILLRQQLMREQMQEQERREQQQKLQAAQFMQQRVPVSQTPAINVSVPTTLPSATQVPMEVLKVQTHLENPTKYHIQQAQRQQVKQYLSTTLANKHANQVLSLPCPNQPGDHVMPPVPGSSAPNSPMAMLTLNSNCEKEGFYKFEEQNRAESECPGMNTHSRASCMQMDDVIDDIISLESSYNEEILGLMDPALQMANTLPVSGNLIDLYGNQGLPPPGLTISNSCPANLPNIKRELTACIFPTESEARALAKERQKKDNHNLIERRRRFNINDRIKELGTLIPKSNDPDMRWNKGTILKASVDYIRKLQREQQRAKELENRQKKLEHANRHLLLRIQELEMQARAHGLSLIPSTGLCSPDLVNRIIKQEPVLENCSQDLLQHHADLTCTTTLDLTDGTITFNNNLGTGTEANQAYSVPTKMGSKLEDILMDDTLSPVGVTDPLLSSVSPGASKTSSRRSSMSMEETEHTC

[18] = target: Disintegrin and metalloproteinase domain-containing protein 17 (Homo sapiens, UniProt P78536); assay: exosite inhibitors of ADAM17, dose response, biochemical (AID 743260)
Chain of Disintegrin and metalloproteinase domain-containing protein 17 (P78536 whole entry, the tested form may be a part): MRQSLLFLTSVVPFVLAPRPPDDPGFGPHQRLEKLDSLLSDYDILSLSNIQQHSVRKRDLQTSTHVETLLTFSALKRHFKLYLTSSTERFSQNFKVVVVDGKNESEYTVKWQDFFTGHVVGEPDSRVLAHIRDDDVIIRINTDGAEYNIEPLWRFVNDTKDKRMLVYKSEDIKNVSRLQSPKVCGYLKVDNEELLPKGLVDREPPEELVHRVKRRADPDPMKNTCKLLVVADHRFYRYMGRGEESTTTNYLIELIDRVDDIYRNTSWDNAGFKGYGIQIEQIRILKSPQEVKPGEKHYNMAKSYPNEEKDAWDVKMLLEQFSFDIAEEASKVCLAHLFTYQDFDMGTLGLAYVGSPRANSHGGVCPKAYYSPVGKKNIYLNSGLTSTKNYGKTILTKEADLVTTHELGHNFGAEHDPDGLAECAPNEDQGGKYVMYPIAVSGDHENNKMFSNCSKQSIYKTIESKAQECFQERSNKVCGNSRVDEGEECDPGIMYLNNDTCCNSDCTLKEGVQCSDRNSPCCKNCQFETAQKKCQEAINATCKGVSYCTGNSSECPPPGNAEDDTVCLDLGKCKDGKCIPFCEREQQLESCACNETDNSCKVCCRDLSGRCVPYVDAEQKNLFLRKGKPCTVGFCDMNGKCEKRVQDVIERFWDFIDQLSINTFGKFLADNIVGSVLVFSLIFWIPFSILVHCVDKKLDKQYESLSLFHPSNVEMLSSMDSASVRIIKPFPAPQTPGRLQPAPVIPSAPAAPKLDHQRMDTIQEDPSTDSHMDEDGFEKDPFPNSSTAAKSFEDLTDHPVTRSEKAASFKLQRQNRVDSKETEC

[19] = inhibition of ADAM10 peptide cleavage – biochemical, FRET peptide substrate, recombinant human ADAM10, selectivity assay for ADAM17 exosite inhibitor project, dose response (AID 743259);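 note: ADAM10 enzyme cleaving a FRET peptide substrate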
[20] = target: T4, Fructose-bisphosphate aldolase (Mycobacterium tuberculosis, UniProt P9WQA3); assay: Fluorescence-based biochemical high throughput dose response assay for inhibitors of the fructose-bisphosphate aldolase (FBA) of M. tuberculosis.; assay type: functional
T4 sequence (P9WQA3 whole entry): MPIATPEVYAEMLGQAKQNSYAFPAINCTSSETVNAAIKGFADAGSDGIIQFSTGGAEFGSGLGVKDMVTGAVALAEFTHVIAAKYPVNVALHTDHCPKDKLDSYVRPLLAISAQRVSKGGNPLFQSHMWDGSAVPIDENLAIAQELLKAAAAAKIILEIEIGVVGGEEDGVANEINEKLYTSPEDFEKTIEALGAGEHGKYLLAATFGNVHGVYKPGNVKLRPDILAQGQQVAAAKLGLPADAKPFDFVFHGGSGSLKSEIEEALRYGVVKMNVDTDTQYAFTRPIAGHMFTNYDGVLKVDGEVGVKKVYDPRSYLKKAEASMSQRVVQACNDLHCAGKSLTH

[21] = target: Beta-galactosidase (Escherichia coli, UniProt Q8VNN2); assay: Dose response counterscreen for EBI2 assay utilizing the enzyme, b-galactosidase.; assay type: functional
Chain of Beta-galactosidase (Q8VNN2 whole entry): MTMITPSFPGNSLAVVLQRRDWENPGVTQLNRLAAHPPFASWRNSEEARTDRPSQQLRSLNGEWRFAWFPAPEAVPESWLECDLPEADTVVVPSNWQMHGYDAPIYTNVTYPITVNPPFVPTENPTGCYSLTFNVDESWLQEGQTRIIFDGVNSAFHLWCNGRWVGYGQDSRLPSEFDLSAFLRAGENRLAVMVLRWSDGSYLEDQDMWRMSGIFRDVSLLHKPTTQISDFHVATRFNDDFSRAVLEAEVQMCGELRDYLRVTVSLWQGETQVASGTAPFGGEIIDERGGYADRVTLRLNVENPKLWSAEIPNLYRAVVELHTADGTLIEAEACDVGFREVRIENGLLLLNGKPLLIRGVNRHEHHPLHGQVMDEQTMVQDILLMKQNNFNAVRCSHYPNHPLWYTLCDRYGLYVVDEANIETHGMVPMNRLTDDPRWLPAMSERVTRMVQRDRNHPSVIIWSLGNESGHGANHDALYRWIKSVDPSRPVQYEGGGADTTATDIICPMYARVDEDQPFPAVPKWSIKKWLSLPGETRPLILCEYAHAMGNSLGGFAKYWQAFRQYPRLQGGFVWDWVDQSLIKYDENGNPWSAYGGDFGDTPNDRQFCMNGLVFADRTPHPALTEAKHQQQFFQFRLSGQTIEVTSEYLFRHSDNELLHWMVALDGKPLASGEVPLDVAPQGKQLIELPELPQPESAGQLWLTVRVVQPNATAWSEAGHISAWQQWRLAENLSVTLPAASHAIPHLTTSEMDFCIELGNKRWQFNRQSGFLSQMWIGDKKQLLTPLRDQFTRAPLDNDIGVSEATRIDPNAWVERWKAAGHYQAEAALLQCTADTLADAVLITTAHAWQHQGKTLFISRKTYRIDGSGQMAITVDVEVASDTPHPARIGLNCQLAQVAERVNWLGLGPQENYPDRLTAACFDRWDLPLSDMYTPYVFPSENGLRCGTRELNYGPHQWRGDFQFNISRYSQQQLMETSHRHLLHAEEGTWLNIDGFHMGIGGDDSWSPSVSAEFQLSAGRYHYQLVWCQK

[22] = target: T5, Heat shock factor protein 1 (Mus musculus, UniProt P38532); assay: decrease of HSF1-responsive luciferase luminescence – cell-based, NIH3T3, dose retest, confirmation (AID 2382); assay type: functional;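 note: NIH3T3 fibroblasts with HSF1-driven luciferase reporter stressed by proteasome inhibitor MG132; luminescence from HSF1-driven luciferase expression after 8 hours of MG132 stress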
T5 sequence (P38532 whole entry): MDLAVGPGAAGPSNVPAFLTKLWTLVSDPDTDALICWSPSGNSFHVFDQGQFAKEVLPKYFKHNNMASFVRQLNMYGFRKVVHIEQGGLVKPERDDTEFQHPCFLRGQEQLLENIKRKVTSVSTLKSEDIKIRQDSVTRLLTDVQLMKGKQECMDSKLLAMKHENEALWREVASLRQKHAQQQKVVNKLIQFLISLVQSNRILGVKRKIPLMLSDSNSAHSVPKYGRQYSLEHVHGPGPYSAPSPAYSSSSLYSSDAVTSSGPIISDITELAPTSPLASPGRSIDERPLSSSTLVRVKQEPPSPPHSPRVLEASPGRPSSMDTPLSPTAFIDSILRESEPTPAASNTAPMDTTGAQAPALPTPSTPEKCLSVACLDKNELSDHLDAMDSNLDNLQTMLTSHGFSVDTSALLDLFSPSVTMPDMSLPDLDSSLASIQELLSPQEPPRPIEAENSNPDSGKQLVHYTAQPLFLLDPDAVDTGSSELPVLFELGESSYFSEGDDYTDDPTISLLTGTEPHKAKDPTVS

[23] = target: Large T antigen (Simian virus 40, UniProt P03070); assay type: functional, Betapolyomavirus macacae;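 note: Confirmatory-stage PubChem screen for compounds that inhibit SV40 T antigen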
Chain of Large T antigen (P03070 whole entry): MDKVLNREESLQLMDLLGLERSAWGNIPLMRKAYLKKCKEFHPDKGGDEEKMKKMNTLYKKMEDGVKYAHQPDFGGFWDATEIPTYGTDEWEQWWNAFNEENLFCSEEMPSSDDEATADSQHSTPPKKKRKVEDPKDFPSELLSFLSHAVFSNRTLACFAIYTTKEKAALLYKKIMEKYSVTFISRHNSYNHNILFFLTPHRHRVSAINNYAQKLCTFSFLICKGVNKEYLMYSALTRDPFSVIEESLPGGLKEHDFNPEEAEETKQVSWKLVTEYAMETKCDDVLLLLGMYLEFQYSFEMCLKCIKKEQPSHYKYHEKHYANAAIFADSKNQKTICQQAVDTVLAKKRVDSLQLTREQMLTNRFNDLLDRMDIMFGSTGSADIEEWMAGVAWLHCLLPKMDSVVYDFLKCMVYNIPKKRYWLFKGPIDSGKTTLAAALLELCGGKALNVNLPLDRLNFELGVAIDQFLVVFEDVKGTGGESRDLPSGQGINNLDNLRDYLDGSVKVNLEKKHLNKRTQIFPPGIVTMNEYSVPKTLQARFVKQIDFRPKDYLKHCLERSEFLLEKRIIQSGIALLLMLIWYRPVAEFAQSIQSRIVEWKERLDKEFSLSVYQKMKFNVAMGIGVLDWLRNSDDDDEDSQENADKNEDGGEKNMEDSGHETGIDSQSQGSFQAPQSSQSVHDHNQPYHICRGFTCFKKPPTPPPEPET

[24] = target: T6, Rac GTPase-activating protein 1 (Homo sapiens, UniProt Q9H0H5); assay: blockers of MgcRacGAP-driven Rac1 GTP hydrolysis – biochemical, ADP Hunter fluorescence, primary and confirmatory, confirmation (AID 624330); assay type: functional
T6 sequence (Q9H0H5 whole entry): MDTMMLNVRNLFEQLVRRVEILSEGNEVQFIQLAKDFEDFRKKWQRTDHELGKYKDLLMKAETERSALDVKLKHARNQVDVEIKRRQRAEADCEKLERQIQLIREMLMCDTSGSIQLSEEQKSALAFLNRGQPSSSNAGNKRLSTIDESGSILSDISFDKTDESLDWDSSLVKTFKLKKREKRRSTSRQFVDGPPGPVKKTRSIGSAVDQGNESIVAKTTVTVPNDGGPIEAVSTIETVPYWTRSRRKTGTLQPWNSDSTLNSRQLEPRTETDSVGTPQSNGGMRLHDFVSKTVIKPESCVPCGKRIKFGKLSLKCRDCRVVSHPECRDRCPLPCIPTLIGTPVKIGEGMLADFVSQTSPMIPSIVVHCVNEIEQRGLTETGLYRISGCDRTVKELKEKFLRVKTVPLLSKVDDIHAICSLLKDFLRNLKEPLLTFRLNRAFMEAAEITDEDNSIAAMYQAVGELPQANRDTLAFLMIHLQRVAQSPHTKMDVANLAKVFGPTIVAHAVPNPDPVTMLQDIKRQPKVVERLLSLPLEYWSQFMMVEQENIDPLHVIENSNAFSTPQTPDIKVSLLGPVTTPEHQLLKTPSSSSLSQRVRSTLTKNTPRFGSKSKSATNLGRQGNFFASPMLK

[25] = target: T7, High affinity choline transporter 1 (Homo sapiens, UniProt Q9GZV3); assay: human choline transporter blockers, potency – cell-based, 5-point CRC, membrane potential dye, dose response (AID 504840); assay type: functional
T7 sequence (Q9GZV3 whole entry): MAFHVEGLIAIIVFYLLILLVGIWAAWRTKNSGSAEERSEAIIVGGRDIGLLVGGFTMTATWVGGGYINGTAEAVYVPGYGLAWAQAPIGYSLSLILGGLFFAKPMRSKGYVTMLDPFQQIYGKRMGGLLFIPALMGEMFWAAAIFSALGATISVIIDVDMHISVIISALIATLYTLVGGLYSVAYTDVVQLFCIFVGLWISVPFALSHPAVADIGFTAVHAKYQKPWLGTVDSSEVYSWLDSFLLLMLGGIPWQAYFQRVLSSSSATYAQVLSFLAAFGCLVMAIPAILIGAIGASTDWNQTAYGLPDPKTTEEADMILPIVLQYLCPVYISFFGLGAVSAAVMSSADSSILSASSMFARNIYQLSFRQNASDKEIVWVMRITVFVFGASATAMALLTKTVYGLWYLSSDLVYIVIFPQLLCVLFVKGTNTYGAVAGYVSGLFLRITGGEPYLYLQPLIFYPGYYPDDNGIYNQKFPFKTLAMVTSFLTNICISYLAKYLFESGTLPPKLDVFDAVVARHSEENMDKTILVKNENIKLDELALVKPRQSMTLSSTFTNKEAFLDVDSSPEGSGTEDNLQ

[26] = viability loss in HeLa cells – cytotoxicity control for MgcRacGAP inhibitor project, dose response (AID 624300); assay type: functional
[27] = Luminescence Cell-Based Dose Confirmation HTS to Identify Inhibitors of Platelet Dense Granule Release. [Related pubchem assays: 1663 (Primary HTS), 1678 (Summary of Project)]; assay type: functional
[28] = target: Luciferin 4-monooxygenase (Photinus pyralis, UniProt P08659); assay: inhibition of purified Photinus pyralis luciferase – biochemical, luminescence, dose response (AID 1891)
Chain of Luciferin 4-monooxygenase (P08659 whole entry): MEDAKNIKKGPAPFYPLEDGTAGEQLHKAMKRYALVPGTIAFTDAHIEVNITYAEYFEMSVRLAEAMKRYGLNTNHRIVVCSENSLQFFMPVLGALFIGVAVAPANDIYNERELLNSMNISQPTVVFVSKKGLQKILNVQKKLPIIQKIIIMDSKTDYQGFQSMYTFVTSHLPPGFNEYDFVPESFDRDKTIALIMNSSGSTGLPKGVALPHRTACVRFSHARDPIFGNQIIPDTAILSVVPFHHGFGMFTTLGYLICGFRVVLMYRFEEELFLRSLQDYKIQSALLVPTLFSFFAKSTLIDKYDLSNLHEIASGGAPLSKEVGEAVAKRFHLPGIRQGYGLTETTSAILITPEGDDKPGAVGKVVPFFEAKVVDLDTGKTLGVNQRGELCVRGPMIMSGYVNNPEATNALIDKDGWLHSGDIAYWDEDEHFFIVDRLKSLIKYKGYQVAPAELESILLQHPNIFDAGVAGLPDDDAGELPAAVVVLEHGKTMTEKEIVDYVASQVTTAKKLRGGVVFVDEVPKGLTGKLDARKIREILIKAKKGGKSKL

T1 sequence (P11940 whole entry): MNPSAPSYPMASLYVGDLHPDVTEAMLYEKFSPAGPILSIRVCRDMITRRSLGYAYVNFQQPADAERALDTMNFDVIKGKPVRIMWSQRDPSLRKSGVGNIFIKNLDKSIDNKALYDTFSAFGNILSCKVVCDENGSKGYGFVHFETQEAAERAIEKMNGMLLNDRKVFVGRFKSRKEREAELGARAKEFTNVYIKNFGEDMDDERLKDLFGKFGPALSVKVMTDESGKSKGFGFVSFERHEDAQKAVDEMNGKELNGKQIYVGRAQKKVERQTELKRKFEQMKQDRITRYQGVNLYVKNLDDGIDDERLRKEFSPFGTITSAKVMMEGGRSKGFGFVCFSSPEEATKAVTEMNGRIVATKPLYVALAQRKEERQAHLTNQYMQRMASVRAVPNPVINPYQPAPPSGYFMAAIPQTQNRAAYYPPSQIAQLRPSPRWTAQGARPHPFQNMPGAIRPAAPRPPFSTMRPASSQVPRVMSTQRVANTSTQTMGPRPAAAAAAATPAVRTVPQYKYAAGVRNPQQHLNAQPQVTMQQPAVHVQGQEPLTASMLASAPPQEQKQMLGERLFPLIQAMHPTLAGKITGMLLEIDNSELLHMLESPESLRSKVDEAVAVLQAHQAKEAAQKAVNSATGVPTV

SMILES: CCOC(=O)c1c(CSc2ccc(C)cc2)n(C)c2cc(Br)c(O)c(CN(C)C)c12
- IC50 [1]: > 66 µM (inactive)
- CC50 [2]: > 25 µM (active)
- AC50 [3]: 1.32 µM (active)
- EC50 [4]: > 59.6 µM (inactive)
- EC50 [5]: > 59.6 µM (inactive)
- AC50 [6]: 0.342 µM (active)
- IC50 [7]: > 66 µM (inactive)
- AC50 [8]: 0.452 µM (active)
- AC50 [9]: 58.8 µM (active)
- IC50 [10]: 2.7 µM (active)
- AC50 [11]: 0.465 µM (active)

SMILES: O=C(O)C1Sc2[nH]c(=O)sc2C2c3cc(Cl)ccc3OC(=O)C12 (stereo not given)
- IC50 [12]: > 59.6 µM (inactive)
- IC50 [13]: > 59.6 µM (inactive)
- IC50 [14]: > 59.6 µM (inactive)

SMILES: O=C(CSc1nnc(NC(=O)c2cccc(F)c2)s1)NCc1ccco1
- IC50 [12]: > 59.6 µM (inactive)
- IC50 [13]: > 59.6 µM (inactive)
- IC50 [14]: > 59.6 µM (inactive)

SMILES: CN1CCN(C2=C(NS(=O)(=O)c3cccs3)C(=O)c3ccccc3C2=O)CC1
- AC50 [15]: > 70 µM (inactive)
- AC50 [16]: 5.87 µM (active)
- AC50 [17]: 6.98 µM (active)

SMILES: C=CCn1c(-c2csc3c2CCC(C)C3)n[nH]c1=S (stereo not given)
- IC50 [18]: > 69.4 µM (inactive)

SMILES: C=CCn1c(S)nnc1-c1csc2c1CCC(C)C2 (stereo not given)
- IC50 [19]: > 69.4 µM (inactive)

SMILES: CCc1cc(=O)oc2c(C)c(OCC(=O)N3CCC[C@@H]3C(=O)O)ccc12
- IC50 [12]: > 59.6 µM (inactive)
- IC50 [13]: > 59.6 µM (inactive)
- IC50 [14]: > 59.6 µM (inactive)
- IC50 [20]: 1.65 µM (active)

SMILES: CCOc1ccc(NC(S)=Nc2ccc(OC(F)(F)F)cc2)cc1
- IC50 [21]: > 80 µM (inactive)
- EC50 [22]: > 195 µM (not active)

SMILES: O=C1CCCCC1C(Nc1ccc(Cl)cc1)c1ccccc1 (stereo not given)
- IC50 [18]: > 69.5 µM (inactive)
- IC50 [19]: 34.3 µM (inactive)

SMILES: O=C1ON=C(c2ccccc2)/C1=C/c1ccc(O)c(O)c1
- IC50 [23]: 5.22 µM (active)
- IC50 [24]: 60 µM (active)
- IC50 [25]: 4.37 µM (active)
- CC50 [26]: 73.7 µM (active)

SMILES: CCOc1cc(/C=C2\C(=O)ON=C2c2ccccc2)cc(Br)c1O
- CC50 [2]: 17.8 µM (active)
- IC50 [24]: 61.2 µM (active)
- CC50 [26]: 100 µM (active)

SMILES: COc1ccc(N2CCC(CN=C(S)Nc3cccc(OC)c3)C2)cc1 (stereo not given)
- IC50 [19]: > 69.5 µM (inactive)

SMILES: COc1ccc(N2CCC(CNC(=S)Nc3cccc(OC)c3)C2)cc1 (stereo not given)
- IC50 [18]: > 69.5 µM (inactive)

SMILES: O=C(c1cc2cc(Cl)ccc2[nH]1)N1CCN(c2ccc(F)cc2)CC1
- IC50 [21]: > 80 µM (inactive)

SMILES: COc1ccc(N2CCN(C(=O)c3cc(=O)c4cc(Cl)ccc4o3)CC2)cc1
- IC50 [21]: > 80 µM (inactive)

SMILES: O=C(Nc1ccccc1C(=O)N/N=C/c1ccc(O)cc1)c1ccccc1
- IC50 [24]: 220 µM (active)
- EC50 [27]: 3.65 µM (active)
- EC50 [28]: 0.184 µM (active)
- CC50 [26]: 39.5 µM (active)
